Laboratory results reported in publication PMC10485003, “Antibiotic hyper-resistance in a class I aminoacyl-tRNA synthetase with altered active site signature motif” (Nature Communications, 2023).
Values joined by “and” are separate entries in the source; they are usually repeats but may differ in a detail not shown here. Identical values can stand only once. Like-named read-outs stand apart in the source and are kept apart here.

Target: T1, wt-ALHH DrIleRS2 (Deinococcus radiodurans, UniProt Q9RUP8)
T1 construct: hexa-histidine tag (pET28b(+)) (N); made in house; host or cells: E. coli BL21(DE3)
T1 sequence (Q9RUP8 whole entry): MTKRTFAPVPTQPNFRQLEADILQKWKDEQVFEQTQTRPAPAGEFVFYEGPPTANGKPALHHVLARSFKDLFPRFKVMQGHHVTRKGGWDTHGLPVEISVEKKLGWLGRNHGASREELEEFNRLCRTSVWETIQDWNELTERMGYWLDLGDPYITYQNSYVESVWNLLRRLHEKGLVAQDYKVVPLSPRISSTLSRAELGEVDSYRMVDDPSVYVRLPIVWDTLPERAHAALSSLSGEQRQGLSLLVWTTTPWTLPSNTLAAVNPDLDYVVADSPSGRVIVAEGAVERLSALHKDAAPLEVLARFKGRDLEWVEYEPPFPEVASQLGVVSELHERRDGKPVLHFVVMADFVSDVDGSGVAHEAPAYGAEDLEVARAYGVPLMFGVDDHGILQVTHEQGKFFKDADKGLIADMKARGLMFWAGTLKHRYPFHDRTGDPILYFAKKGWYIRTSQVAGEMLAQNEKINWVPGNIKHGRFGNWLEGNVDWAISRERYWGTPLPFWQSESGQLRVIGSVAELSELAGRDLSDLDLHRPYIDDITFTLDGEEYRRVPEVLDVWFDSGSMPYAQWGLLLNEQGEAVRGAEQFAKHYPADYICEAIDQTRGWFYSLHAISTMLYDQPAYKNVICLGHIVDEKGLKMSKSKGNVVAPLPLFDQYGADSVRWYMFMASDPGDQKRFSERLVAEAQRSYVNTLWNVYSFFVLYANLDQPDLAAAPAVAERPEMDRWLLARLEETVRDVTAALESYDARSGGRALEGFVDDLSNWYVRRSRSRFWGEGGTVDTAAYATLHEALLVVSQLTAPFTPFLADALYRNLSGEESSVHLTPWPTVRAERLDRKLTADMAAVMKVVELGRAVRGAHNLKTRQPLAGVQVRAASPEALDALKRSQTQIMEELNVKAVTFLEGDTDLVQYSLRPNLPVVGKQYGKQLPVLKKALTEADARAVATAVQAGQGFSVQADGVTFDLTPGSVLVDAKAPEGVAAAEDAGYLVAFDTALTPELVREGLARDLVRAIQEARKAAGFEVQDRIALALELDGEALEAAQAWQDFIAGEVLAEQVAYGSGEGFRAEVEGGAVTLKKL
Assay: ATP-PPi exchange assay, mupirocin inhibition of amino acid activation
Type: biochemical
Description: L-Ile and ATP concentrations ranged from 1/10 KM to 10 KM values. When measuring the KI towards one of the substrates, the other was held in saturation (concentrations at least 10 KM). The aliquots of the reaction mixture (1–2.5 μl) were quenched in 2 volumes of 500 mM NaOAc pH = 4.5, 0.1% SDS, and formed ^32P-ATP was separated from the remaining ^32P-PPi by thin-layer chromatography on Polygram CEL 300 PEI UV254 TLC plates (Macherey-Nagel, cat: 801063) using 750 mM KH2PO4 pH=3.5, 4 M urea buffer. Visualization and quantification of the signals was performed using a Typhoon Phosphoimager 5 (General Electric) and accompanying ImageQuant™ TL software (SV: 10.2). The kinetic constants were determined using a global fit option of the competitive inhibition model of GraphPad Prism 6 software (SV: 6.01). All experiments were performed in triplicates. The kcat was determined by dividing the maximal velocity, VM, with the used enzyme concentration. […]
variable substrate (ATP or Ile) was varied in the range of 0.1 KM to 10 KM. The other substrate (Ile or ATP) was kept in excess at 5 to 10 KM. Data were globally fitted to the competitive inhibition model using GraphPad prism 6.01 for Windows software. The values represent the average value ± SD of three independent experiments. Source data are provided as a Source Data file.

C/C(=C\C(=O)OCCCCCCCCC(=O)O)C[C@@H]1OC[C@H](C[C@@H]2O[C@H]2[C@@H](C)[C@H](C)O)[C@@H](O)[C@H]1O [mupirocin]
Ki (amino acid activation assay, ATP as variable substrate, average ± SD of three independent experiments, read-out: KI (MUP)ATP): 7.7 ± 0.4 mM
Ki (amino acid activation step, ATP/PPi exchange assay, Ile varied, ATP saturating, average ± SD of three independent experiments, read-out: KI (MUP)Ile): 6.6 ± 0.4 mM
mode of inhibition (amino acid activation step, with respect to both Ile and ATP): classical competitive inhibition
initial velocity vo (c(mupirocin) 2.0 mM, c(Ile) 10.0 μM): 0.0067 mM/min and 0.00769 mM/min and 0.00782 mM/min
initial velocity vo (c(mupirocin) 2.0 mM, c(Ile) 20.0 μM): 0.01324 mM/min and 0.01288 mM/min and 0.01298 mM/min
initial velocity vo (c(mupirocin) 2.0 mM, c(Ile) 40.0 μM): 0.02028 mM/min and 0.02243 mM/min and 0.02046 mM/min
initial velocity vo (c(mupirocin) 5.0 mM, c(ATP) 1.0 mM): 0.03528 mM/min and 0.03566 mM/min and 0.03641 mM/min
initial velocity vo (c(mupirocin) 5.0 mM, c(ATP) 2.5 mM): 0.04751 mM/min and 0.04951 mM/min and 0.05105 mM/min
initial velocity vo (c(mupirocin) 5.0 mM, c(ATP) 5.0 mM): 0.05659 mM/min and 0.05544 mM/min and 0.05848 mM/min
initial velocity vo (c(mupirocin) 5.0 mM, c(ATP) 10.0 mM): 0.05987 mM/min and 0.05899 mM/min and 0.06477 mM/min
initial velocity vo (c(mupirocin) 5.0 mM, c(Ile) 10.0 μM): 0.00848 mM/min and 0.00805 mM/min and 0.00714 mM/min
initial velocity vo (c(mupirocin) 5.0 mM, c(Ile) 20.0 μM): 0.01178 mM/min and 0.01222 mM/min and 0.01149 mM/min
initial velocity vo (c(mupirocin) 5.0 mM, c(Ile) 40.0 μM): 0.01921 mM/min and 0.02111 mM/min and 0.01863 mM/min
initial velocity vo (c(mupirocin) 10.0 mM, c(ATP) 1.0 mM): 0.02957 mM/min and 0.02811 mM/min and 0.02952 mM/min
initial velocity vo (c(mupirocin) 10.0 mM, c(ATP) 2.5 mM): 0.04461 mM/min and 0.04583 mM/min and 0.04572 mM/min
initial velocity vo (c(mupirocin) 10.0 mM, c(ATP) 5.0 mM): 0.05427 mM/min and 0.05634 mM/min and 0.05619 mM/min
initial velocity vo (c(mupirocin) 10.0 mM, c(ATP) 10.0 mM): 0.06096 mM/min and 0.06226 mM/min and 0.06179 mM/min
initial velocity vo (c(mupirocin) 10.0 mM, c(Ile) 10.0 μM): 0.00446 mM/min and 0.00532 mM/min and 0.0043 mM/min
initial velocity vo (c(mupirocin) 10.0 mM, c(Ile) 20.0 μM): 0.0078 mM/min and 0.01029 mM/min and 0.0074 mM/min
initial velocity vo (c(mupirocin) 10.0 mM, c(Ile) 40.0 μM): 0.01449 mM/min and 0.016 mM/min and 0.01446 mM/min
initial velocity vo (c(mupirocin) 10.0 mM, c(Ile) 80.0 μM): 0.02234 mM/min and 0.02409 mM/min and 0.02227 mM/min
initial velocity vo (c(mupirocin) 15.0 mM, c(ATP) 1.0 mM): 0.02381 mM/min and 0.02402 mM/min and 0.0242 mM/min
initial velocity vo (c(mupirocin) 15.0 mM, c(ATP) 2.5 mM): 0.03988 mM/min and 0.03998 mM/min and 0.04105 mM/min
initial velocity vo (c(mupirocin) 15.0 mM, c(ATP) 5.0 mM): 0.05025 mM/min and 0.05034 mM/min and 0.05209 mM/min
initial velocity vo (c(mupirocin) 15.0 mM, c(ATP) 10.0 mM): 0.0561 mM/min and 0.05663 mM/min and 0.05737 mM/min
initial velocity vo (c(mupirocin) 20.0 mM, c(ATP) 1.0 mM): 0.02027 mM/min and 0.02047 mM/min and 0.01966 mM/min
initial velocity vo (c(mupirocin) 20.0 mM, c(ATP) 2.5 mM): 0.03606 mM/min and 0.03686 mM/min and 0.03693 mM/min
initial velocity vo (c(mupirocin) 20.0 mM, c(ATP) 5.0 mM): 0.04674 mM/min and 0.0476 mM/min and 0.04884 mM/min
initial velocity vo (c(mupirocin) 20.0 mM, c(ATP) 10.0 mM): 0.05461 mM/min and 0.05589 mM/min and 0.05542 mM/min
initial velocity vo (c(mupirocin) 25 mM, c(ATP) 1.0 mM): 0.01716 mM/min and 0.01763 mM/min and 0.01741 mM/min
initial velocity vo (c(mupirocin) 25 mM, c(ATP) 2.5 mM): 0.03106 mM/min and 0.033 mM/min and 0.02877 mM/min
initial velocity vo (c(mupirocin) 25 mM, c(ATP) 5.0 mM): 0.0424 mM/min and 0.04408 mM/min and 0.04201 mM/min
initial velocity vo (c(mupirocin) 25 mM, c(ATP) 10.0 mM): 0.05204 mM/min and 0.0507 mM/min and 0.05392 mM/min
initial velocity vo (c(mupirocin) 25.0 mM, c(Ile) 10.0 μM): 0.003 mM/min and 0.0032 mM/min and 0.00312 mM/min
initial velocity vo (c(mupirocin) 25.0 mM, c(Ile) 20.0 μM): 0.0036 mM/min and 0.0044 mM/min and 0.00399 mM/min
initial velocity vo (c(mupirocin) 25.0 mM, c(Ile) 40.0 μM): 0.0074 mM/min and 0.0071 mM/min and 0.00814 mM/min
initial velocity vo (c(mupirocin) 25.0 mM, c(Ile) 80.0 μM): 0.0137 mM/min
Ki (mupirocin inhibition towards Ile, GraphPad Prism output, Repl1-Repl3, read-out: KI, single replicates): 7.22 mM and 6.75 mM and 5.95 mM
